The values below are quoted from earlier work in paper PMC9804910 (Chembiochem, 2022).

This series relates to several cancer cell lines. The arrangement: method as in PMID 32319768. To be noted: cited from earlier work.

Turning to [Ru(DIP)2(sq)](PF6) [Compound 2], the cytotoxicity entry is on record as “nanomolar concentration range”.
